{"source": "patent EP2518054A1", "about": "“AMIDE COMPOUND” (Takeda Pharmaceutical Company Limited, priority 2009, dated 2011)", "target": "T1, human GPR52 (Homo sapiens, UniProt Q9Y2T5)", "T1 construct": "expressed in transfected cells; host or cells: CHO(dhfr-) cells", "T1 sequence (Q9Y2T5 whole entry)": "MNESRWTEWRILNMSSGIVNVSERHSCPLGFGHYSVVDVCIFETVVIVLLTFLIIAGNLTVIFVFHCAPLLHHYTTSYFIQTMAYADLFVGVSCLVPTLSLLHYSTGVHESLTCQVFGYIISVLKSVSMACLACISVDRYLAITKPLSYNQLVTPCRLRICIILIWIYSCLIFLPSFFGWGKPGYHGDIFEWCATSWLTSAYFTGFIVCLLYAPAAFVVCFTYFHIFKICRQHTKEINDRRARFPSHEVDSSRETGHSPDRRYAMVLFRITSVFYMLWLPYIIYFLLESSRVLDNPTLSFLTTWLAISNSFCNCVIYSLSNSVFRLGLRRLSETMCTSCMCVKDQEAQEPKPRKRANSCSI", "test": "Increase of intracellular cAMP concentration in human GPR52-expressing CHO cell (AlphaScreen cAMP assay)", "type": "cell-based", "conditions": "human GPR52-expressing CHO(dhfr-) cells; for activity at 1 µM: CHO, read-out: GPR52 agonist activity (%); for EC50: concentration of the test compound at which it shows 50% activity, read-out: GPR52 agonist activity EC50", "method": "Increase of intracellular cAMP concentration in human GPR52-expressing CHO cell\nUsing OptiPlate-384 (PerkinElmer Inc.), 1×10^4 human GPR52-expressing CHO(dhfr-) cells were incubated together with various concentration(10^-5µM - 10µm) of a test compound in an assay buffer (30 µL, HBSS (containing Ca^2+ and Mg^2+), 0.5% BSA, 100 µM IBMX, 100 µM Ro20-1724, 5 mM HEPES (pH 7.55)) at 37°C for 30 min. Thereafter, according to the protocol of AlphaScreen CAMP Assay Kit (PerkinElmer Inc.), the intracellular cAMP concentration was measured by EnVision (PerkinElmer Inc.). The GPR52 agonist activity was calculated, assuming the intracellular cAMP concentration in the presence of […] N-(2-hydroxyethyl)-3-[2-[3-(trifluoromethyl)benzyl]-1-benzofuran-4-yl]benzamide (Reference Example 79) to be 100% and assuming the intracellular cAMP concentration when DMSO was added instead of the test compound to be 0%.", "key": {"[1]": {"conditions": "1µM test compound, 100% = cAMP with 1 µM Reference Example 79, 0% = DMSO, 37°C, 30 min"}}}
{"smiles": "Cn1nc(-c2cccc3cc(Cc4cccc(C(F)(F)F)c4)sc23)cc1C(=O)NCCO", "note": "[Example 111, N-(2-hydroxyethyl)-1-methyl-3-[2-[3-(trifluoromethyl)benzyl]-1-benzathiophen-7-yl]-1H-pyrazole-5-carboxamide]", "values": [{"measurement": "activity at 1 µM", "setting": "[1]", "result": 89, "unit": "%"}, {"measurement": "EC50", "result": 0.038, "unit": "µM"}]}
{"smiles": "CNC(=O)c1c(C)nn(-c2ccc(F)c3cc(Cc4cccc(C(F)(F)F)c4)sc23)c1C", "note": "[Example 102, 1-[4-fluoro-2-[3-(trifluoromethyl)benzyl]-1-benzothiophen-7-yl]-N,3,5-trimethyl-1H-pyrazole-4-carboxamide]", "values": [{"measurement": "activity at 1 µM", "setting": "[1]", "result": 99, "unit": "%"}]}
{"smiles": "O=C(NCCO)c1sc(-c2cccc3cc(Cc4cccc(C(F)(F)F)c4)sc23)nc1C(F)(F)F", "note": "[Example 87, N-(2-hydroxyethyl)-4-(trifluoromethyl)-2-[2-[3-(trifluoromethyl)benzyl]-1-benzothiophen-7-yl]-1,3-thiazole-5-carboxamide]", "values": [{"measurement": "activity at 1 µM", "setting": "[1]", "result": 92, "unit": "%"}]}
{"smiles": "Cc1nn(-c2cccc3nn(Cc4cc(F)cc(Cl)c4)cc23)c(C)c1C(N)=O", "note": "[Example 81, 1-[2-(3-chloro-5-fluorobenzyl)-2H-indazol-4-yl]-3,5-dimethyl-1H-pyrazole-4-carboxamide]", "values": [{"measurement": "activity at 1 µM", "setting": "[1]", "result": 102, "unit": "%"}]}
{"smiles": "Cc1nn(-c2ccc(F)c3cc(Cc4cc(F)cc(Cl)c4)sc23)c(CO)c1C(N)=O", "note": "[Example 91, 1-[2-(3-chloro-5-fluorobenzyl)-4-fluoro-1-benzothiophen-7-yl]-5-(hydroxymethyl)-3-methyl-1H-pyrazole-4-carboxamide]", "values": [{"measurement": "activity at 1 µM", "setting": "[1]", "result": 99, "unit": "%"}]}
{"smiles": "Cc1nn(-c2cccc3nn(Cc4cccc(C(F)(F)F)c4)cc23)c(C)c1C(=O)NCC(N)=O", "note": "[Example 80, N-(2-amino-2-oxoethyl)-3,5-dimethyl-1-[2-[3-(trifluoromethyl)benzyl]-2H-indazol-4-yl]-1H-pyrazole-4-carboxamide]", "values": [{"measurement": "activity at 1 µM", "setting": "[1]", "result": 98, "unit": "%"}]}
{"smiles": "COc1cc(Cc2cc3cccc(-n4nc(C)c(C(=O)NCC(N)=O)c4C)c3s2)ccc1F", "note": "[Example 96, N-(2-amino-2-oxoethyl)-1-[2-(4-fluoro-3-methoxybenzyl)-1-benzothiophen-7-yl]-3,5-dimethyl-1H-pyrazole-4-carboxamide]", "values": [{"measurement": "activity at 1 µM", "setting": "[1]", "result": 84, "unit": "%"}]}
{"smiles": "Cc1nn(-c2cccc3sc(Cc4cccc(C(F)(F)F)c4)cc23)c(C)c1C(=O)NCCO", "note": "[Example 106, N-(2-hydroxyethyl)-3,5-dimethyl-1-[2-[3-(trifluoromethyl)benzyl]-1-benzothiophen-4-yl]-1H-pyrazole-4-carboxamide]", "values": [{"measurement": "activity at 1 µM", "setting": "[1]", "result": 97, "unit": "%"}]}
{"smiles": "Cc1cn(-c2cccc3cc(Cc4cccc(C(F)(F)F)c4)sc23)nc1C(=O)NCC(N)=O", "note": "[Example 30, N-(2-amino-2-oxoethyl)-4-methyl-1-[2-[3-(trifluoromethyl)benzyl]-1-benzothiophen-7-yl]-1H-pyrazole-3-carboxamide]", "values": [{"measurement": "activity at 1 µM", "setting": "[1]", "result": 96, "unit": "%"}]}
{"smiles": "Cc1nn(-c2cccc3sc(Cc4cc(F)cc(Cl)c4)cc23)c(C)c1C(=O)NCC(N)=O", "note": "[Example 107, N-(2-amino-2-oxoethyl)-1-[2-(3-chloro-5-fluorobenzyl)-1-benzothiophen-4-yl]-3,5-dimethyl-1H-pyrazole-4-carboxamide]", "values": [{"measurement": "activity at 1 µM", "setting": "[1]", "result": 100, "unit": "%"}]}
{"smiles": "Cc1nc(-c2cccc3cc(Cc4cccc(C(F)(F)F)c4)sc23)sc1C(N)=O", "note": "[Example 36, 4-methyl-2-[2-[3-(trifluoromethyl)benzyl]-1-benzothiophen-7-yl]-1,3-thiazole-5-carboxamide]", "values": [{"measurement": "activity at 1 µM", "setting": "[1]", "result": 96, "unit": "%"}]}
{"smiles": "COc1cc(Cc2cc3cccc(-n4nc(C)c(C(=O)NCCO)c4C)c3s2)ccc1F", "note": "[Example 97, 1-[2-(4-fluoro-3-methoxybenzyl)-1-benzothiophen-7-yl]-N-(2-hydroxyethyl)-3,5-dimethyl-1H-pyrazole-4-carboxamide]", "values": [{"measurement": "activity at 1 µM", "setting": "[1]", "result": 94, "unit": "%"}]}
{"smiles": "Cc1nn(-c2cccc3nn(Cc4cccc(C(F)(F)F)c4)cc23)c(C)c1C(N)=O", "note": "[Example 78, 3,5-dimethyl-1-[2-[3-(trifluoromethyl)benzyl]-2H-indazol-4-yl]-1H-pyrazole-4-carboxamide]", "values": [{"measurement": "activity at 1 µM", "setting": "[1]", "result": 104, "unit": "%"}]}
{"smiles": "Cc1nc(-c2cccc3cc(Cc4cccc(C(F)(F)F)c4)sc23)oc1C(=O)NCC(N)=O", "note": "[Example 11, N-(2-amino-2-oxoethyl)-4-methyl-2-[2-[3-(trifluoromethyl)benzyl]-1-benzothiophen-7-yl]-1,3-oxazole-5-carboxamide]", "values": [{"measurement": "activity at 1 µM", "setting": "[1]", "result": 70, "unit": "%"}, {"measurement": "EC50", "result": 0.29, "unit": "µM"}]}
{"smiles": "Cc1cc(C(=O)NCC(N)=O)n(-c2cccc3cc(Cc4cccc(C(F)(F)F)c4)sc23)n1", "note": "[Example 31, N-(2-amino-2-oxoethyl)-3-methyl-1-[2-[3-(trifluoromethyl)benzyl]-1-benzothiophen-7-yl]-1H-pyrazole-5-carboxamide]", "values": [{"measurement": "activity at 1 µM", "setting": "[1]", "result": 84, "unit": "%"}]}
{"smiles": "Cc1nn(-c2ccc(F)c3cc(Cc4cccc(C(F)(F)F)c4)sc23)c(CO)c1C(N)=O", "note": "[Example 73, 1-[4-fluoro-2-[3-(trifluoromethyl)benzyl]-1-benzothiophen-7-yl]-5-(hydroxymethyl)-3-methyl-1H-pyrazole-4-carboxamide]", "values": [{"measurement": "activity at 1 µM", "setting": "[1]", "result": 97, "unit": "%"}]}
{"smiles": "Cc1nc(-c2cccc3cc(Cc4cccc(C(F)(F)F)c4)sc23)sc1C(=O)NCCC#N", "note": "[Example 38, N-(2-cyanoethyl)-4-methyl-2-[2-[3-(trifluoromethyl)benzyl]-1-benzothiophen-7-yl]-1,3-thiazole-5-carboxamide]", "values": [{"measurement": "activity at 1 µM", "setting": "[1]", "result": 101, "unit": "%"}]}
{"smiles": "Cc1nn(-c2cccc3sc(Cc4cc(F)cc(Cl)c4)cc23)c(C)c1C(N)=O", "note": "[Example 109, 1-[2-(3-chloro-5-fluorobenzyl)-1-benzothiophen-4-yl]-3,5-dimethyl-1H-pyrazole-4-carboxamide]", "values": [{"measurement": "activity at 1 µM", "setting": "[1]", "result": 89, "unit": "%"}]}
{"smiles": "COCCNC(=O)c1c(C)nn(-c2cccc3cc(Cc4cccc(C(F)(F)F)c4)sc23)c1C", "note": "[Example 51, N-(2-methoxyethyl)-3,5-dimethyl-1-[2-[3-(trifluoromethyl)benzyl]-1-benzothiophen-7-yl]-1H-pyrazole-4-carboxamide]", "values": [{"measurement": "activity at 1 µM", "setting": "[1]", "result": 102, "unit": "%"}]}
{"smiles": "Cc1nn(-c2cccc3cc(Cc4cccc(C(F)(F)F)c4)sc23)c(C)c1C(=O)NCC(N)=O", "note": "[Example 53, N-(2-amino-2-oxoethyl)-3,5-dimethyl-1-[2-[3-(trifluoromethyl)benzyl]-1-benzothiophen-7-yl]-1H-pyrazole-4-carboxamide]", "values": [{"measurement": "activity at 1 µM", "setting": "[1]", "result": 102, "unit": "%"}]}
{"smiles": "COc1cc(Cc2cc3cccc(-n4nc(C)c(C(N)=O)c4C)c3s2)ccc1F", "note": "[Example 98, 1-[2-(4-fluoro-3-methoxybenzyl)-1-benzothiophen-7-yl]-3,5-dimethyl-1H-pyrazole-4-carboxamide]", "values": [{"measurement": "activity at 1 µM", "setting": "[1]", "result": 98, "unit": "%"}]}
{"smiles": "Cc1nn(-c2cccc3cc(Cc4cccc(C(F)(F)F)c4)sc23)c(CO)c1C(N)=O", "note": "[Example 64, 5-(hydroxymethyl)-3-methyl-1-[2-[3-(trifluoromethyl)benzyl]-1-benzothiophen-7-yl]-1H-pyrazole-4-carboxamide]", "values": [{"measurement": "activity at 1 µM", "setting": "[1]", "result": 97, "unit": "%"}, {"measurement": "EC50", "result": 0.018, "unit": "µM"}]}
{"smiles": "Cc1c(C(=O)NCCO)c(CO)nn1-c1cccc2cc(Cc3cccc(C(F)(F)F)c3)sc12", "note": "[Example 67, N-(2-hydroxyethyl)-3-(hydroxymethyl)-5-methyl-1-[2-[3-(trifluoromethyl)benzyl]-1-benzothiophen-7-yl]-1H-pyrazole-4-carboxamide]", "values": [{"measurement": "activity at 1 µM", "setting": "[1]", "result": 83, "unit": "%"}]}
{"smiles": "Cc1nn(-c2cccc3oc(Cc4cccc(C(F)(F)F)c4)cc23)c(C)c1C(=O)NCC(N)=O", "note": "[Example 74, N-(2-amino-2-oxoethyl)-3,5-dimethyl-1-[2-[3-(trifluoromethyl)benzyl]-1-benzofuran-4-yl]-1H-pyrazole-4-carboxamide]", "values": [{"measurement": "activity at 1 µM", "setting": "[1]", "result": 98, "unit": "%"}]}
{"smiles": "Cc1nn(-c2cccc3cc(Cc4cc(F)cc(F)c4)sc23)c(C)c1C(=O)NCC(N)=O", "note": "[Example 101, N-(2-amino-2-oxoethyl)-1-[2-(3,5-difluorobenzyl)-1-benzothiophen-7-yl]-3,5-dimethyl-1H-pyrazole-4-carboxamide]", "values": [{"measurement": "activity at 1 µM", "setting": "[1]", "result": 96, "unit": "%"}]}
{"smiles": "O=C(NCCO)c1cn(-c2cccc3cc(Cc4cccc(C(F)(F)F)c4)sc23)nc1C1CC1", "note": "[Example 29, 3-cyclopropyl-N-(2-hydroxyethyl)-1-[2-[3-(trifluoromethyl)benzyl]-1-benzothiophen-7-yl]-1H-pyrazole-4-carboxamide]", "values": [{"measurement": "activity at 1 µM", "setting": "[1]", "result": 97, "unit": "%"}]}
{"smiles": "Cc1cccc(Cc2cc3cccc(-n4nc(C)c(C(=O)NCCO)c4C)c3s2)c1", "note": "[Example 94, N-(2-hydroxyethyl)-3,5-dimethyl-1-[2-(3-methylbenzyl)-1-benzothiophen-7-yl]-1H-pyrazole-4-carboxamide]", "values": [{"measurement": "activity at 1 µM", "setting": "[1]", "result": 96, "unit": "%"}]}
{"smiles": "NC(=O)c1cn(-c2cccc3cc(Cc4cccc(C(F)(F)F)c4)sc23)nc1C(F)(F)F", "note": "[Example 22, 3-(trifluoromethyl)-1-[2-[3-(trifluoromethyl)benzyl]benzothiophen-7-yl]-1H-pyrazole-4-carboxamide]", "values": [{"measurement": "activity at 1 µM", "setting": "[1]", "result": 93, "unit": "%"}]}
{"smiles": "Cc1nc(-c2cccc3nn(Cc4cc(F)cc(C(F)(F)F)c4)cc23)sc1C(N)=O", "note": "[Example 86, 2-[2-[3-fluoro-5-(trifluoromethyl)benzyl]-2H-indazol-4-yl]-4-methyl-1,3-thiazole-5-carboxamide]", "values": [{"measurement": "GPR52 agonist activity (%)", "setting": "[1]", "result": 102, "unit": "%"}, {"measurement": "activity at 1 µM", "setting": "[1]", "result": 85, "unit": "%"}]}
{"smiles": "Cc1nn(-c2cccc3cc(Cc4cc(F)cc(Cl)c4)sc23)c(C)c1C(=O)NCC(N)=O", "note": "[Example 55, N-(2-amino-2-oxoethyl)-1-[2-(3-chloro-5-fluorobenzyl)-1-benzothiophen-7-yl]-3,5-dimethyl-1H-pyrazole-4-carboxamide]", "values": [{"measurement": "activity at 1 µM", "setting": "[1]", "result": 96, "unit": "%"}]}
